Results as given in ChEMBL document CHEMBL1138998, “A topological function based on spectral moments for predicting affinity toward A3 adenosine receptors” (Bioorg Med Chem Lett, 2006).

biological target: T1, Adenosine receptor A3 (Rattus norvegicus, UniProt P28647); assay: Displacement of [125I]AB-MECA from rat adenosine A3 receptor expressed in CHO cells; assay type: cell-based
T1 sequence (P28647 whole entry): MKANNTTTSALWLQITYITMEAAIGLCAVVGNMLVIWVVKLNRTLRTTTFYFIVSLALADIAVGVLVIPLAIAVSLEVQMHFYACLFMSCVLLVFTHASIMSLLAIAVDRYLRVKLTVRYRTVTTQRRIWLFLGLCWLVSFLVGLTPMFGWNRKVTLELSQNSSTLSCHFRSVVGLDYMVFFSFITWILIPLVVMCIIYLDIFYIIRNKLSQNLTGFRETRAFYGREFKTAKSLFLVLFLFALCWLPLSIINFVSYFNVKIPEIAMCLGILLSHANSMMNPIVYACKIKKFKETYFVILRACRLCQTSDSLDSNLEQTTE

Row | Ki | SMILES
1 | 155 nM | CCNC(=O)[C@H]1O[C@@H](n2cnc3c(NC(=O)Nc4ccc(S(=O)(=O)Nc5cc(C)on5)cc4)ncnc32)[C@H](O)[C@@H]1O
2 | 54.1 nM | CCNC(=O)[C@H]1O[C@@H](n2cnc3c(NC(=O)Nc4ccc(S(=O)(=O)Nc5ccccn5)cc4)ncnc32)[C@H](O)[C@@H]1O
3 | 405 nM | CCNC(=O)[C@H]1O[C@@H](n2cnc3c(NC(=O)Nc4ccc(S(=O)(=O)Nc5ncccn5)cc4)ncnc32)[C@H](O)[C@@H]1O
